Experiment [1] has as its target Full length human CDC7 protein co-expressed with DBF4 (Homo sapiens (Human), UniProt O00311). Kind of experiment: CDC7 kinase biochemical assay (ADP-Glo, PDKtide substrate). Particulars: 0.1 nM CDC7/DBF4, 1 uM ATP, 10 uM PDKtide, 4 h. As to the method:
CDC7 Kinase Biochemical Assay Protocol:
Full length human CDC7 protein co-expressed with DBF4 was purchased from SignalChem (China). CDC7 kinase activity was determined with PDKtide (SignalChem) as a substrate and by measuring ADP production using the ADP-Glo™ Kinase Assay kit (Promega) following the manufacturers instructions. The kinase reaction was performed using the following conditions: Buffer: 40 mM Tris pH 7.5, 20 mM MgCl2, 0.1 mg/ml BSA and 50 uM DTT. Final reaction mix contained 0.1 nM CDC7/DBF4, 1 uM ATP and 10 uM PDKtide. The kinase reaction time was 4 h. The ADP-Glo signal was measured using an EnVision plate reader (PerkinELmer).
Percent inhibition of CDC7 kinase activity was calculated based on the following formula:
[formula] • Ssample: the signal of compounds • SHigh Ctrl: the signal of high control (DMSO) • SLow Ctrl: the signal of low control (positive control CDC7 inhibitor)
In general terms: ADP-Glo first removes unused ATP, then detects ADP through luciferase.

Experiment [2] relates to phosphorylation of MCM2 S53 in colo205 cells. Kind of experiment: Phosphorylated MCM2 MSD electrochemiluminescence assay. It is filed as cell-based. Particulars: Homo sapiens, COLO 205, 20 h incubation, read-out: pMCM2-S53 MSD Colo205 IC50. As to the method: Phosphorylated MCM2 MSD Electrochemiluminescence Assay
The effect of CDC7 inhibitors on cellular phosphorylation of the CDC7 substrate MCM2 was determined using the following protocol:
A total of 40,000 colo205 cells in 100 uL culture medium (1640 medium+10% Fetal bovine serum+1% Penicillin-Streptomycin) were plated in 96-well cell culture plates and allowed to attach for 6 hours. 3-fold serial dilutions of test compounds were prepared in completed PBS at 25×final concentration and 4 uL of each were added to the cells and incubated for 20 hours at 37° C., 5% CO2. Each concentration was tested in duplicate. After the 20 h incubation, cells were washed with 150 uL PBS and lysed with 40 uL MSD lysis buffer (obtained from Meso Scale Diagnostics) supplied with 1×complete ULTRA cocktail inhibitor (obtained from Roche). To detect phosphorylation of MCM2 S53, 30 μL of capture antibody solution (obtained from Abnova, catalog number H00004171-MO1, 1:500) was added to each well of MULTI-ARRAY 96-well High Bind Plate, and incubated overnight. The antibody solution was removed, wells blocked with BSA solution and plates washed, followed by addition of 30 ul of cell lysate per well. After 2 h incubation, plates were washed. 30 μL of 1×detection antibody solution (obtained from Abcam, catalog number ab109133, 1:1000) was then added to each well and incubate for 1 hour. Plates were washed and 30 μL of 1×secondary antibody solution (obtained from MSD, catalog number R32AB-1, 1:5000) was added to each well and incubate for 1 hour. Plates were washed and 150 µL of 1×Read Buffer T was added to each well of the MSD plate. The electrochemiluminescence signal was measured on a MESO SECTOR S600 plate reader. The percentage of remaining phosphorylated MCM2 signal was calculated following the equation below.
[formula] • HC (high control): Cells treated with DMSO • Cpds: Cells treated with test compounds • LC (low control): Cells treated with positive control CDC7 inhibitor

Consider 13 compounds from patent US20230365584A1, “HETEROCYCLIC PERICONDENSED CDC7 KINASE INHIBITORS FOR THE TREATMENT OF CANCER” (SCHRÖDINGER, INC., priority 2020, published 2023).

Chain of Full length human CDC7 protein co-expressed with DBF4 (O00311 whole entry): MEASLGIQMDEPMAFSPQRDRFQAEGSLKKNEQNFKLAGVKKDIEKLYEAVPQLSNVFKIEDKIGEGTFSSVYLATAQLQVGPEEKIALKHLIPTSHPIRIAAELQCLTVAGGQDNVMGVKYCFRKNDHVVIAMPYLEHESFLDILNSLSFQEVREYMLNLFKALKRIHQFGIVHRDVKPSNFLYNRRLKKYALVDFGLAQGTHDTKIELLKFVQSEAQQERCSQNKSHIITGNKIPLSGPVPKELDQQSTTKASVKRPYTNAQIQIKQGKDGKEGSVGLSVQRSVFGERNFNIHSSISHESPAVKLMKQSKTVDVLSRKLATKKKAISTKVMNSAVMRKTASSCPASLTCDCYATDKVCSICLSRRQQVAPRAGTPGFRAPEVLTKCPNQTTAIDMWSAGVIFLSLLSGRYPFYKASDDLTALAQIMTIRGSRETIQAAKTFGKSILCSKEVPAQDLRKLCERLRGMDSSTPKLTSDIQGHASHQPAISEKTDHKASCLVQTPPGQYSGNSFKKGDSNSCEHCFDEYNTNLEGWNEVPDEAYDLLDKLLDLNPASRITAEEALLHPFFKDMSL
Chain of Full length human CDC7 protein co-expressed with DBF4 (Q9UBU7 whole entry partner): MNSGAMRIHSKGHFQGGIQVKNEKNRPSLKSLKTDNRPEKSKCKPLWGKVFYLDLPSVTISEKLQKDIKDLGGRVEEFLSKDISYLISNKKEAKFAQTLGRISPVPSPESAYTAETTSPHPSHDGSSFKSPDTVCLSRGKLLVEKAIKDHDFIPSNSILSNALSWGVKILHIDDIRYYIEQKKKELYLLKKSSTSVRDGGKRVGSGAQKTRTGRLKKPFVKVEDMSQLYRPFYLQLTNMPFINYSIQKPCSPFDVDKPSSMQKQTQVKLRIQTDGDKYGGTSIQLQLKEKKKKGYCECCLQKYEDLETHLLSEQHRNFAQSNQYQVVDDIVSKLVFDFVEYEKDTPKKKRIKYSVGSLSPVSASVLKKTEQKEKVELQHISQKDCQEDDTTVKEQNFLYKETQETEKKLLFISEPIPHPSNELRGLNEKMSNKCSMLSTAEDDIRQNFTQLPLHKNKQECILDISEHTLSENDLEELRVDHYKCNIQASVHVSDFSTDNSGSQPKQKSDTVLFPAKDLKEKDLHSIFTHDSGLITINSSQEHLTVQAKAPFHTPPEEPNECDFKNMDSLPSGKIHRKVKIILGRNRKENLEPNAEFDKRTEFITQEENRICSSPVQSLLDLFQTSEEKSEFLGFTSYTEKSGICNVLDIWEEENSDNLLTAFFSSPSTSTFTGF

With `CC[C@](C)(O)c1[nH]c(=O)c2sc(-c3cn[nH]c3)c3c2c1CCCO3` (single isomer, unassigned) [Example 57], the IC50 (usually the point on the concentration scale where inhibition reaches its midpoint) in experiment [1] was less than 1 nM; in experiment [2] it was less than 100 nM.

With `O=c1[nH]c(CN2CCC2)c2c3c(c(-c4cn[nH]c4)sc13)OCC(F)(F)C2` [Example 44, 7-(azetidin-1-ylmethyl)-10,10-difluoro-2-(1H-pyrazol-4-yl)-12-oxa-3-thia-6-azatricyclo[6.4.1.0^4,13]trideca-1,4(13),7-trien-5-one], the IC50 was less than 1 nM in experiment [1] and less than 100 nM in experiment [2].

`O=C(c1[nH]c(=O)c2sc(-c3cn[nH]c3)c3c2c1CCCO3)N1CCCC1` [Example 51, 2-(1H-pyrazol-4-yl)-7-(pyrrolidine-1-carbonyl)-12-oxa-3-thia-6-azatricyclo[6.4.1.0^4,13]-trideca-1,4(13),7-trien-5-one]: the IC50 in experiment [1] was 1 to 10 nM; in experiment [2], no less than 1000 nM.

Regarding `C[C@@H](c1[nH]c(=O)c2sc(-c3cn[nH]c3)c3c2c1CCCO3)N1CCC1` (single isomer, unassigned) [Example 30], the IC50 in experiment [1] is less than 1 nM; in experiment [2] it was less than 100 nM.

For `Cc1[nH]c(=O)c2sc(-c3ccncc3)c3c2c1C[C@@H](C)O3` (single isomer, unassigned) [Example 7], the IC50 in experiment [1] is less than 1 nM; in experiment [2], 100 to 1000 nM.

For `O=c1[nH]c(CN2CCC2)c2c3c(c(-c4cn[nH]c4)sc13)OCCC2` [Example 13, 5-(azetidin-1-ylmethyl)-1-(1H-pyrazol-4-yl)-4,6,7,8-tetrahydro-3H-9-oxa-2-thia-4-azabenzo[cd]azulen-3-one], the IC50 in experiment [1] was less than 1 nM; in experiment [2] it was less than 100 nM.

Regarding `O=c1[nH]c(COC2CCC2)c2c3c(c(-c4cn[nH]c4)sc13)OCCC2` [Example 55, 5-(cyclobutoxymethyl)-1-(1H-pyrazol-4-yl)-4,6,7,8-tetrahydro-3H-9-oxa-2-thia-4-azaben-zo[cd]azulen-3-one], the IC50 in experiment [1] was less than 1 nM; in experiment [2], less than 100 nM.

As to `CC(C)NCc1[nH]c(=O)c2sc(-c3cn[nH]c3)c3c2c1CCCO3` [Example 24, 5-((isopropylamino)methyl)-1-(1H-pyrazol-4-yl)-4,6,7,8-tetrahydro-3H-9-oxa-2-thia-4-azabenzo[cd]azulen-3-one], the IC50 in experiment [1] is less than 1 nM; in experiment [2], 100 to 1000 nM.

Take `Cc1[nH]c(=O)c2sc(-c3cn[nH]c3)c3c2c1CCCO3` [Example 5, 5-methyl-1-(1H-pyrazol-4-yl)-4,6,7,8-tetrahydro-3H-9-oxa-2-thia-4-azabenzo[cd]azulen-3-one]: the IC50 in experiment [1] is less than 1 nM; in experiment [2] it was less than 100 nM.

Turning to `C[C@H](c1[nH]c(=O)c2sc(-c3cn[nH]c3)c3c2c1CCCO3)n1cccn1` (single isomer, unassigned) [Example 46], the IC50 in experiment [1] is less than 1 nM; in experiment [2], 100 to 1000 nM.

Consider `CC(C)(O)c1[nH]c(=O)c2sc(-c3cn[nH]c3)c3c2c1CCCO3` [Example 28, 5-(2-hydroxypropan-2-yl)-1-(1H-pyrazol-4-yl)-4,6,7,8-tetrahydro-3H-9-oxa-2-thia-4-azabenzo[cd]azulen-3-one], for which the half-inhibitory concentration (IC50) in experiment [1] is less than 1 nM; in experiment [2], less than 100 nM.

Regarding `C[C@@H](c1[nH]c(=O)c2sc(-c3cn[nH]c3)c3c2c1CCCO3)n1cccn1` (single isomer, unassigned) [Example 47], the IC50 was less than 1 nM in experiment [1] and less than 100 nM in experiment [2].

With `C[C@H](c1[nH]c(=O)c2sc(-c3cn[nH]c3)c3c2c1CCCO3)N1CCC1` (single isomer, unassigned) [Example 31], the IC50 in experiment [1] is less than 1 nM; in experiment [2], less than 100 nM.
